Drawing on ChEMBL document CHEMBL3727365, “Compounds that modulate intracellular calcium” (2012), this text covers Efficacy and IC50 for 18 molecules.

The target in one test is ORAI1/STIM1 (Homo sapiens) (UniProt Q96D31+Q13586). Nature of the test: Inhibition of recombinant human STIM1/Orai1 expressed in HEK293 cells assessed as inhibition of peak basal signal after 30 mins by fluo4-AM dye-based FLIPR assay. It counts as cell-based.
Sequence of ORAI1/STIM1 (Homo sapiens) (Q13586 23-685 partner limits assumed): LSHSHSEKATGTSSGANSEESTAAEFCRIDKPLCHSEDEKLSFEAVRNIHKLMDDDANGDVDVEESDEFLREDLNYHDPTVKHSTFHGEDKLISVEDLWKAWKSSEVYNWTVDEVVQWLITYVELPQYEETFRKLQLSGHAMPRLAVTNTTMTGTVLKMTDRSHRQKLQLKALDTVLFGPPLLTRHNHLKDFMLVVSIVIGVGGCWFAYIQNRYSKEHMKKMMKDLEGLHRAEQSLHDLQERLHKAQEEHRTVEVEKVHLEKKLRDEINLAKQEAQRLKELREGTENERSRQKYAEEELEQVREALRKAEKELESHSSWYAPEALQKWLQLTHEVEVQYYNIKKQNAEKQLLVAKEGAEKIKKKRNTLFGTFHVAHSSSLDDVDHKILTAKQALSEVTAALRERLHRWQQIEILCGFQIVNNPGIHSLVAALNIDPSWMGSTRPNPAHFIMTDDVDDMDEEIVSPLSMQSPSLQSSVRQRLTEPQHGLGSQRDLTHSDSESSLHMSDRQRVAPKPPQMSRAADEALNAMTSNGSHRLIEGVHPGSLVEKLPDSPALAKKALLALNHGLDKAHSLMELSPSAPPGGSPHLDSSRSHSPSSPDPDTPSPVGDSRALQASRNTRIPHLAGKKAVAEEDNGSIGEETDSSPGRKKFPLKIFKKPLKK
Sequence of ORAI1/STIM1 (Homo sapiens) (Q96D31 whole entry): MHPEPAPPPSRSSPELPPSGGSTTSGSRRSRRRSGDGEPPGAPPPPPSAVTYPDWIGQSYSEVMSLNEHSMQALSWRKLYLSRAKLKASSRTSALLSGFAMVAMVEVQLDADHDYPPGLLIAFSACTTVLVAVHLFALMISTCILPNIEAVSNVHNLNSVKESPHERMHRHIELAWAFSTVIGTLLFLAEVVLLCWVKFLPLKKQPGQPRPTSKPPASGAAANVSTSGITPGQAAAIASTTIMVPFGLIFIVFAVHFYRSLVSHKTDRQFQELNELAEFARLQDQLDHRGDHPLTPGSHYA
`Cn1nc(C(F)(F)F)cc1-c1ccc(NC(=O)c2ccncc2F)s1`: the Efficacy is under 50%.
With `Cc1ccccc1C(=O)Nc1ncc(-c2cc(C(F)(F)F)nn2C)s1`, the Efficacy was under 50%.

In the next test the test system is Jurkat. Nature of the test: Inhibition of PHA/TPA-induced IL2 release in human Jurkat T cells preincubated for 10 mins followed by PHA/TPA stimulation measured after […] by ELISA. It counts as functional, cell-based. (In general: ELISA stands for enzyme-linked immunosorbent assay.)
As a reminder, the IC50 is the concentration at which inhibition is half-maximal. Read a low IC50 as higher potency. As for `Cn1nc(-c2ccco2)cc1-c1ccc(C(=O)Nc2ccccc2Cl)s1`, the IC50 worked out at 50 nM.
As to `Cn1nc(C(F)(F)F)cc1-c1cnc(NC(=O)c2ccccc2F)s1`, the concentration for half-maximal inhibition (IC50) was under 50 nM.
Molecule `Cn1nc(-c2ccco2)cc1-c1ccc(C(=O)Nc2ncccc2F)s1` had an IC50 of over 100 nM.
`Cn1nc(-c2ccccc2F)cc1-c1ccc(C(=O)Nc2ncc(Cl)cc2F)s1`: the 50% inhibitory concentration (IC50) is under 50 nM.
In the case of `Cn1nc(-c2nccs2)cc1-c1ccc(C(=O)Nc2ncc(Cl)cc2F)s1`, the IC50 was under 50 nM.
On to `Cn1nc(-c2ccco2)cc1-c1ccc(C(=O)Nc2c(F)cncc2F)s1`, for which the half-inhibitory concentration (IC50) is under 50 nM.
`Cn1nc(-c2ccccc2F)cc1-c1ccc(C(=O)Nc2c(F)cncc2F)s1` showed an IC50 of under 50 nM.
As for `Cn1nc(-c2ccco2)cc1-c1ccc(C(=O)Nc2ncc(Cl)cc2F)s1`, the 50% inhibitory concentration (IC50) is under 50 nM.
Same read-out and setting: to `Cn1nc(-c2ccccc2F)cc1-c1ccc(C(=O)Nc2ncccc2F)s1` belongs 50 nM; to `Cn1nc(-c2nccs2)cc1-c1ccc(C(=O)Nc2ccccc2F)s1`, under 50 nM; to `Cn1nc(-c2ccccc2F)cc1-c1ccc(C(=O)Nc2ccncc2F)s1`, under 50 nM.
As to `Cc1nc2cc(Cl)c(-c3cnc(NC(=O)c4ccccc4Cl)s3)cc2o1`, it took 50 nM to reach half-maximal inhibition (IC50).
Consider `Cn1nc(-c2ccccc2)cc1-c1ccc(C(=O)Nc2ccccc2F)s1`, for which the IC50 was over 100 nM.
On the same count and under the same terms, the figure for `Cn1nc(-c2nccs2)cc1-c1ccc(C(=O)Nc2ccncc2F)s1` is under 50 nM.
For the molecule `Cn1nc(-c2ccco2)cc1-c1ccc(C(=O)Nc2ccncc2F)s1`, the concentration for half-maximal inhibition (IC50) was under 50 nM.
`Cn1nc(-c2ccccc2)cc1-c1ccc(C(=O)Nc2ccncc2F)s1` returned an IC50 of 50 nM.
